Assay results published in patent US11104633B2, “Cancer treatment using compounds that selectively target polyploid cancer cells for disruption” (Chengdu Anticancer Bioscience, Ltd., priority 2017, dated 2021).

Experiments:
MM-BRAF cells = assay: Cell death / polyploidy in parental lung cancer cells; assay type: cell-based, mouse
RPE-MYC cells [1] = assay: VX-680-induced cell death in RPE-MYC cells and derivatives; assay type: cell-based
Description: (§1) The p53 function in RPE-Myc cells can be interfered with by either a small molecule inhibitor of p53, PFT-a, (FIG. 1A), or a dominant negative p53 mutant (FIG. 1B). […] In contrast, either of these reagents conferred more than 70% protection against the cytotoxicity elicited by hydroxyurea (FIG. 1A-B), confirming that the p53 function was compromised. The conclusion was that p53 was not required for the apoptosis elicited by VX-680 in cells overexpressing MYC.
Survival signals are often mediated by the Ras-PI3K-Akt pathway. Overexpression of an active Hu-Ras^V12 elicited profound senescence in RPE-MYC cells, prevented generation of stable cell lines expressing Hu-Ras^V12, but were able to generate RPE-MYC cells expressing an active allele of MyrAkt. […] Thus, active signaling from Akt enhanced, rather than blocked, the apoptosis elicited by VX-680. The BCL family antiapoptotic factor Bcl2 is a critical regulator of mitochondrion-dependent apoptotic pathway by inhibiting cytochrome C release from mitochondria, whereas XIAP, the most characterized member of the IAP family, has been known to sequester and inactivate active caspases, proteases responsible for apoptosis. The overexpression of Bcl2 or Bcl-xL provided more than 40% protection against the cytotoxicity of VX-680 six days after administration of VX-680 (see, FIGS. 1C and 2) and that overexpression of XIAP has no effect on the MYC-dependent cytotoxicity (FIG. 1C).
Various RPEMYC derivatives used in this study were generated by stably transfecting human RPEMYC cells with a construct that expresses the gene of interest and selecting with 1 μg/ml of puromycin. Breast cancer cell line MD231MYC/Bcl2 was generated by engineering human MDA-MB-231 to stably express MYC and Bcl2. Lung cancer cell line MM-BRAF was created from mouse lung cancer model initiated by BRAF^V600E. All cell lines were cultured in DMEM supplemented with 10% fetal bovine serum and antibiotics at 5% CO2 and 95% air in a humidified incubator.
(§2) Cell death assays in response to drug treatment were performed 24 h after cells were seeded in 24-well plates. Each experiment was done in triplicate and each experiment was repeated at least twice unless indicated otherwise. Dead cells were identified by the trypan blue exclusion assay. All values are expressed as mean±1 SD of the mean.

RPE-MYC cells [2] = assay: Hydroxyurea cytotoxicity in RPE-Myc cells (p53 function control); assay type: cell-based, human; conditions: p53 inhibition; FIG. 1A
Description: as §1, §2

COc1cc(Nc2ncc3c(n2)-c2ccc(Cl)cc2C(c2c(F)cccc2OC)=NC3)ccc1C(=O)O [MLN8237]
effect on lung cancer cells (MM-BRAF cells; FIG. 6A legend): cytostatic effect | induction of polyploidy (MM-BRAF cells; FIG. 6B legend): develop polyploidy

Cc1ccc(C(=O)Cn2c3c(sc2=N)CCCC3)cc1 [PFT-a]
protection from VX-680-induced cell death (RPE-MYC cells [1]; p53 inhibition, FIG. 1A): Neither of these reagents protected | protection against the cytotoxicity elicited by hydroxyurea (RPE-MYC cells [2]): more than 70%

Cc1cc(Nc2cc(N3CCN(C)CC3)nc(Sc3ccc(NC(=O)C4CC4)cc3)n2)[nH]n1 [VX-680]
cell death on exposure (MM-BRAF cells; in vitro, FIG. 6A): failed to undergo cell death | induction of multinucleation and polyploidy (MM-BRAF cells; treatment for 4 days, FIG. 6B): all cells became multinucleated and polyploid | effect of overexpression of XIAP on the MYC-dependent cytotoxicity (RPE-MYC cells [1]; FIG. 1C): no effect | sensitivity to cytotoxicity, cells expressing Myc and active Akt versus Myc alone (RPE-MYC cells [1]; RPE cells expressing both Myc and active Akt, FIG. 1C): moderately more sensitive | protection against the cytotoxicity by overexpression of Bcl2 or Bcl-xL (RPE-MYC cells [1]; six days after administration, FIGS. 1C and 2): more than 40%
